In patent US10287301B2 (Achillion Pharmaceuticals, Inc., priority 2015, dated 2019):

Target: Human Factor D (Homo sapiens (Human), UniProt P00746)
Assay: Human Factor D Assay
Type: biochemical
Details: Human Factor D, Table 3; read-out: IC50
Summary of the method: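 Serum-purified human Factor D (80 nM final) was preincubated with test compound at various concentrations for 5 min at room temperature in 50 mM Tris, 1M NaCl, pH 7.5. Z-L-Lys-SBzl and DTNB were then added at 100 μM each. IC50 came from nonlinear regression of reaction rates versus compound concentration.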

Chain of Human Factor D (P00746 26-253): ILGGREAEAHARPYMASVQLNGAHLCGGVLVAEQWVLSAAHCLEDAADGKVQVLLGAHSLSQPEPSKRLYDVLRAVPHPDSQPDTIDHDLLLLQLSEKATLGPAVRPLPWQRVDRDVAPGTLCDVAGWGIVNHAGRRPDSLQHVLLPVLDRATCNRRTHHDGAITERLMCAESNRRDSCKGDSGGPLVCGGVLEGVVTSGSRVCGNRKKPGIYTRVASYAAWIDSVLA

| Structure (SMILES) | IC50 [nM] |
| --- | --- |
| CC(=O)c1nn(CC(=O)N2C[C@H](F)C[C@H]2C(=O)Nc2cccc(Br)n2)c2cnc(-c3cnc(C)nc3)cc12 [Compound 633, (2S,4R)-1-(2-(3-Acetyl-5-(2-methylpyrimidin-5-yl)-1H-pyrazolo[3,4-c]pyridin-1-yl)acetyl)-N-(6-bromopyridin-2-yl)-4-fluoropyrrolidine-2-carboxamide] | < 1000 |
| COc1ncc(-c2ccc3c(c2)c(C(C)=O)nn3CC(=O)N2C[C@H]3C[C@H]3[C@H]2C(=O)Nc2nc(Br)ccc2C)cn1 [Compound 634, (1R,2S,5S)-3-(2-(3-Acetyl-5-(2-methoxypyrimidin-5-yl)-1H-indazol-1-yl)acetyl)-N-(6-bromo-3-methylpyridin-2-yl)-3-azabicyclo[3.1.0]hexane-2-carboxamide] | < 1000 |
| CC(=O)c1nn(CC(=O)N2C[C@H]3C[C@H]3[C@H]2C(=O)Nc2nc(Br)ccc2C)c2ccc(-c3cnc(N)nc3)cc12 [Compound 635, (1R,2S,5S)-3-(2-(3-Acetyl-5-(2-aminopyrimidin-5-yl)-1H-indazol-1-yl)acetyl)-N-(6-bromo-3-methylpyridin-2-yl)-3-azabicyclo[3.1.0]hexane-2-carboxamide] | < 1000 |
| CC(=O)c1nn(CC(=O)N2[C@H](C(=O)Nc3nc(Br)ccc3C)C[C@@]3(C)C[C@@H]23)c2c(C)cc(-c3cnc(C)nc3)cc12 [Compound 636, (1R,3S,5R)-2-(2-(3-Acetyl-7-methyl-5-(2-methylpyrimidin-5-yl)-1H-indazol-1-yl)acetyl)-N-(6-bromo-3-methylpyridin-2-yl)-5-methyl-2-azabicyclo[3.1.0]hexane-3-carboxamide] | < 1000 |
| CC(=O)c1nn(CC(=O)N2C[C@H]3C[C@H]3[C@H]2C(=O)Nc2nc(Br)ccc2C2CC2)c2ccc(-c3cnc(C)nc3)cc12 [Compound 637, (1R,2S,5S)-3-(2-(3-Acetyl-5-(2-methylpyrimidin-5-yl)-1H-indazol-1-yl)acetyl)-N-(6-bromo-3-cyclopropylpyridin-2-yl)-3-azabicyclo[3.1.0]hexane-2-carboxamide] | < 1000 |
| CC(=O)c1nn(CC(=O)N2C[C@H]3C[C@H]3[C@H]2C(=O)Nc2ccn(CC(F)(F)F)n2)c2ccc(-c3cnc(C)nc3)cc12 [Compound 638, (1R,2S,5S)-3-(2-(3-Acetyl-5-(2-methylpyrimidin-5-yl)-1H-indazol-1-yl)acetyl)-N-(1-(2,2,2-trifluoroethyl)-1H-pyrazol-3-yl)-3-azabicyclo[3.1.0]hexane-2-carboxamide] | < 1000 |
| CC(=O)c1nn(CC(=O)N2C[C@@](F)(CN(C)C)C[C@H]2C(=O)Nc2cccc(Br)n2)c2ccc(-c3cnc(C)nc3)cc12 [Compound 639, (2S,4S)-1-(2-(3-Acetyl-5-(2-methylpyrimidin-5-yl)-1H-indazol-1-yl)acetyl)-N-(6-bromopyridin-2-yl)-4-((dimethylamino)methyl)-4-fluoropyrrolidine-2-carboxamide] | < 1000 |
| CC(=O)c1nn(CC(=O)N2[C@H](C(=O)Nc3cncc(C(F)(F)F)n3)C[C@@]3(C)C[C@@H]23)c2ccc(-c3cnc(C)nc3)cc12 [Compound 640, (1R,3S,5R)-2-(2-(3-acetyl-5-(2-methylpyrimidin-5-yl)-1H-indazol-1-yl)acetyl)-5-methyl-N-(6-(trifluoromethyl)pyrazin-2-yl)-2-azabicyclo[3.1.0] hexane-3-carboxamide] | < 1000 |
| COc1ncc(-c2ccc3c(c2)c(C(C)=O)nn3CC(=O)N2C[C@H]3C[C@H]3[C@H]2C(=O)Nc2nc(Br)ccc2C2CC2)cn1 [Compound 641, (1R,2S,5S)-3-(2-(3-Acetyl-5-(2-methoxypyrimidin-5-yl)-1H-indazol-1-yl)acetyl)-N-(6-bromo-3-cyclopropylpyridin-2-yl)-3-azabicyclo[3.1.0]hexane-2-carboxamide] | < 1000 |
| CC(=O)c1nn(CC(=O)N2C[C@@H](C)C[C@H]2C(=O)Nc2nc(Br)ccc2C)c2ccc(-c3cnc(C)nc3)cc12 [Compound 643, (2S,4S)-1-(2-(3-Acetyl-5-(2-methylpyrimidin-5-yl)-1H-indazol-1-yl)acetyl)-N-(6-bromo-3-methylpyridin-2-yl)-4-methylpyrrolidine-2-carboxamide] | < 1000 |
| CC(=O)c1nn(CC(=O)N2C[C@H](C)C[C@H]2C(=O)Nc2nc(Br)ccc2C)c2ccc(-c3cnc(C)nc3)cc12 [Compound 644, (2S,4R)-1-(2-(3-Acetyl-5-(2-methylpyrimidin-5-yl)-1H-indazol-1-yl)acetyl)-N-(6-bromo-3-methylpyridin-2-yl)-4-methylpyrrolidine-2-carboxamide] | < 1000 |
| CC(=O)c1nn(CC(=O)N2C[C@@](F)(CN(C)C)C[C@H]2C(=O)Nc2nc(Br)ccc2C)c2ccc(-c3cnc(C)nc3)cc12 [Compound 645, (2S,4S)-1-(2-(3-Acetyl-5-(2-methylpyrimidin-5-yl)-1H-indazol-1-yl)acetyl)-N-(6-bromo-3-methylpyridin-2-yl)-4-((dimethylamino)methyl)-4-fluoropyrrolidine-2-carboxamide] | < 1000 |
| CC(=O)c1nn(CC(=O)N2[C@@H](C)CC[C@H]2C(=O)Nc2nc(Br)ccc2C)c2ccc(-c3cnc(C)nc3)cc12 [Compound 646, (2S,5S)-1-(2-(3-Acetyl-5-(2-methylpyrimidin-5-yl)-1H-indazol-1-yl)acetyl)-N-(6-bromo-3-methylpyridin-2-yl)-5-methylpyrrolidine-2-carboxamide] | < 1000 |
| CC(=O)c1nn(CC(=O)N2[C@H](C(=O)Nc3nc(Br)ccc3C)C[C@@H]3C[C@@H]32)c2ccc(-c3cnc(C)nc3)cc12 [Compound 647, (1S,3S,5S)-2-(2-(3-Acetyl-5-(2-methylpyrimidin-5-yl)-1H-indazol-1-yl)acetyl)-N-(6-bromo-3-methylpyridin-2-yl)-2-azabicyclo[3.1.0]hexane-3-carboxamide] | < 1000 |
| CC(=O)c1nn(CC(=O)N2C[C@H](F)C[C@@H]2C(=O)Nc2nc(Br)ccc2C(=O)O)c2ccc(-c3cnc(C)nc3)cc12 [Compound 648, 2-((2R,4R)-1-(2-(3-Acetyl-5-(2-methylpyrimidin-5-yl)-1H-indazol-1-yl)acetyl)-4-fluoropyrrolidine-2-carboxamido)-6-bromonicotinic acid] | > 10000 |
| CC(=O)c1nn(CC(=O)N2C[C@H](F)C[C@H]2C(=O)Nc2cccc(Br)n2)c2ccc(-c3cnc(Cl)nc3)cc12 [Compound 651, (2S,4R)-1-(2-(3-Acetyl-5-(2-chloropyrimidin-5-yl)-1H-indazol-1-yl)acetyl)-N-(6-bromopyridin-2-yl)-4-fluoropyrrolidine-2-carboxamide] | > 10000 |
| CC(=O)c1nn(CC(=O)N2C[C@H]3C[C@H]3[C@H]2C(=O)Nc2nc(Br)ccc2C)c2c(C)cc(-c3cnc(C)nc3)cc12 [Compound 652, (1R,2S,5S)-3-(2-(3-Acetyl-7-methyl-5-(2-methylpyrimidin-5-yl)-1H-indazol-1-yl)acetyl)-N-(6-bromo-3-methylpyridin-2-yl)-3-azabicyclo[3.1.0]hexane-2-carboxamide] | < 1000 |
| CC(=O)c1nn(CC(=O)N2C[C@H](F)C[C@H]2C(=O)Nc2cncc(Br)n2)c2ccc(-c3ccc4nc(C)cn4c3)cc12 [Compound 654, (2S,4R)-1-(2-(3-Acetyl-5-(2-methylimidazo[1,2-a]pyridin-6-yl)-1H-indazol-1-yl)acetyl)-N-(6-bromopyrazin-2-yl)-4-fluoropyrrolidine-2-carboxamide] | < 1000 |
